# Test results: patent publication US4257941A, “Polycyclic nitrogen-containing compounds” (BASF Aktiengesellschaft, priority 1976, dated 1981)
# Like-named read-outs stand apart in the source and are kept apart here.
# Key:
# Type in all cases: in vivo
# Hordeum vulgare = assay: Growth height of young cereal plants (Example 11, Table A); conditions: soil treatment
# Text: (§1) The vessels used for the experiments were plastic pots having a volume of 1,130 cm^3 (Table A) or paraffined paper cups having a volume of 170 cm^3 (Table B). The pots and cups were filled with a sandy loam. The seeds of the test plants-separated by species-were sown shallow. Preemergence treatment (soil treatment) was effected immediately after sowing and before germination of the seeds. Seeds lying on the surface came into contact with the active ingredients. Postemergence treatment (leaf treatment) took place at an average growth height of the plants (depending on the rate of growth) of from 6 to 10 cm. The substances were suspended, emulsified or dissolved in water as diluent and applied by means of fine nozzles. The vessels were kept in the greenhouse in a temperature range of 12° C. to 25° C., and were regularly sprinkler irrigated for the duration of the experiment. The observation period was 6 to 8 weeks.
# Triticum aestivum = assay: as above
# Text: as §1
# Galium aparine = assay: Herbicidal action (Example 25); conditions: read-out: percentage damage
# Description: (§2) Paraffined paper cups having a volume of 170 cm^3 were filled with a sandy loam, and the seeds of the test plants sown therein, separated by species. (The species are also listed below.)
# (§3) In the first group, treatment was effected immediately after sowing and before germination of the seeds (preemergence treatment=soil treatment). Shallow sown seeds not completely covered with soil came into contact with the active ingredients. In the second group, the plants were treated postemergence (=leaf treatment) at a growth height of from 2 to 8 cm, depending on the rate of growth and shape of the species concerned. The compounds were suspended or emulsified in water and applied with the aid of fine nozzles. The soil and plants were thoroughly sprinkler irrigated for the duration of the experiment. The cups were placed in the greenhouse and kept in the temperature range 12°-25° C. or 18°-35° C., depending on the temperature requirements of the various species. After 2 to 6 weeks the action was assessed visually on a 0 to 100 scale, 0 denoting no damage and 100 denoting plants not germinated or completely destroyed.
# Solanum nigrum = assay: Herbicidal action (Example 25)
# Description: as §2, §3
# Lamium spp. = assay: Herbicidal action (Example 25)
# Description: as §2, §3
# Poa annua = assay: Herbicidal action (Example 25); conditions: for pest or weed control at 2000 g/ha / pest or weed control at 4000 g/ha / pest or weed control at 8000 g/ha: Poa annua, read-out: percentage damage; for pest or weed control at 4000 g/ha: 4.0 kg/ha; for pest or weed control at 8000 g/ha: 8.0 kg/ha
# Description: as §2, §3
# [1] = post-emergence, postemergence, 2.0 kg/ha
# [2] = post-emergence, postemergence, 4.0 kg/ha
# [3] = post-emergence, postemergence, 8.0 kg/ha
# [4] = pre-emergence, preemergence, 2.0 kg/ha
# [5] = pre-emergence, preemergence, 4.0 kg/ha
# [6] = pre-emergence, preemergence, 8.0 kg/ha
SMILES,Growth height (Hordeum vulgare; 0.5 kg/ha),Growth height (Hordeum vulgare; 1.0 kg/ha),Growth height (Hordeum vulgare; 2.0 kg/ha),"Growth height (Triticum aestivum; leaf treatment, 0.5 kg/ha)","Growth height (Triticum aestivum; leaf treatment, 1.0 kg/ha)","Growth height (Triticum aestivum; leaf treatment, 2.0 kg/ha)","Growth height (Triticum aestivum; soil treatment, 0.5 kg/ha)","Growth height (Triticum aestivum; soil treatment, 1.0 kg/ha)","Growth height (Triticum aestivum; soil treatment, 2.0 kg/ha)","percentage damage (Solanum nigrum; postemergence, 2.0 kg/ha)","percentage damage (Solanum nigrum; postemergence, 4.0 kg/ha)","percentage damage (Solanum nigrum; postemergence, 8.0 kg/ha)","percentage damage (Solanum nigrum; preemergence, 2.0 kg/ha)","percentage damage (Solanum nigrum; preemergence, 4.0 kg/ha)","percentage damage (Solanum nigrum; preemergence, 8.0 kg/ha)","percentage damage (Lamium spp.; postemergence, 2.0 kg/ha)","percentage damage (Lamium spp.; postemergence, 4.0 kg/ha)","percentage damage (Lamium spp.; postemergence, 8.0 kg/ha)","percentage damage (Lamium spp.; preemergence, 2.0 kg/ha)","percentage damage (Lamium spp.; preemergence, 4.0 kg/ha)",further results
O=[N+]([O-])c1cccc(N2N=NC3C4CC(C5N=NC45)C32)c1 (centres unmarked),36 cm,36 cm,29 cm,28 cm,28 cm,17 cm,26 cm,26 cm,13 cm,–,–,–,–,–,–,–,–,–,–,–,–
FC(F)(F)c1ccc(Cl)c(N2N=NC3C4CC(C5N=NC45)C32)c1 (centres unmarked) [drawing 361],40 cm,39 cm,38 cm,42 cm,27 cm,20 cm,16 cm,15 cm,0 cm,–,–,–,–,–,–,–,–,–,–,–,–
Clc1cccc(N2N=NC3C4CC(C5N=NC45)C32)c1 (centres unmarked) [drawing 364],43 cm,40 cm,30 cm,25 cm,13 cm,12 cm,15 cm,–,–,–,–,–,–,–,–,–,–,–,–,–,"Growth height (Triticum aestivum; leaf treatment, 0.25 kg/ha): 29 cm; Growth height (Triticum aestivum; soil treatment, 0.25 kg/ha): 26 cm"
Brc1ccccc1N1N=NC2C3CC(C4N=NC34)C21 (centres unmarked) [drawing 365],40 cm,42 cm,31 cm,35 cm,33 cm,33 cm,22 cm,12 cm,10 cm,–,–,–,–,–,–,–,–,–,–,–,–
Brc1cccc(N2N=NC3C4CC(C5N=NC45)C32)c1 (centres unmarked) [drawing 366],38 cm,30 cm,27 cm,33 cm,28 cm,17 cm,24 cm,20 cm,16 cm,–,–,–,–,–,–,–,–,–,–,–,–
c1cc2sncc2cc1N1N=NC2C3CC(C4N=NC34)C21 (centres unmarked) [drawing 368],36 cm,39 cm,31 cm,23 cm,26 cm,20 cm,28 cm,20 cm,23 cm,–,–,–,–,–,–,–,–,–,–,–,"Growth height (Triticum aestivum; leaf treatment, 0.25 kg/ha): 30 cm; Growth height (Triticum aestivum; soil treatment, 0.25 kg/ha): 32 cm"
Clc1ccc(N2N=NC3C4CC(C5NNC45)C32)cc1 (centres unmarked) [drawing 369],30 cm,18 cm,14 cm,30 cm,28 cm,25 cm,12 cm,6 cm,7 cm,–,–,–,–,–,–,–,–,–,–,–,"Growth height (Hordeum vulgare; 0.25 kg/ha): 36 cm; Growth height (Triticum aestivum; leaf treatment, 0.25 kg/ha): 36 cm; Growth height (Triticum aestivum; soil treatment, 0.25 kg/ha): 22 cm"
CC(C)OC(=O)Nc1cccc(Cl)c1 [drawing 426],–,–,–,–,–,–,–,–,–,22 percentage damage,22 percentage damage,38 percentage damage,85 percentage damage,85 percentage damage,90 percentage damage,50 percentage damage,50 percentage damage,90 percentage damage,72 percentage damage,90 percentage damage,"pest or weed control at 2000 g/ha (Galium aparine; [1]): 0%; pest or weed control at 4000 g/ha (Galium aparine; [2]): 0%; pest or weed control at 8000 g/ha (Galium aparine; [3]): 10%; pest or weed control at 2000 g/ha (Galium aparine; [4]): 88%; pest or weed control at 4000 g/ha (Galium aparine; [5]): 80%; pest or weed control at 8000 g/ha (Galium aparine; [6]): 88%; percentage damage (Lamium spp.; preemergence, 8.0 kg/ha): 95 percentage damage; pest or weed control at 2000 g/ha (Poa annua; [1]): 30%; pest or weed control at 4000 g/ha (Poa annua; post-emergence, postemergence): 30%; pest or weed control at 8000 g/ha (Poa annua; post-emergence, postemergence): 42%; pest or weed control at 2000 g/ha (Poa annua; [4]): 100%; pest or weed control at 4000 g/ha (Poa annua; pre-emergence, preemergence): 100%; pest or weed control at 8000 g/ha (Poa annua; pre-emergence, preemergence): 100%"
CN(C)C(=O)Nc1ccc(Oc2ccccc2)cc1 [drawing 427],–,–,–,–,–,–,–,–,–,100 percentage damage,100 percentage damage,100 percentage damage,75 percentage damage,80 percentage damage,90 percentage damage,75 percentage damage,85 percentage damage,85 percentage damage,50 percentage damage,65 percentage damage,"pest or weed control at 2000 g/ha (Galium aparine; [1]): 0%; pest or weed control at 4000 g/ha (Galium aparine; [2]): 0%; pest or weed control at 8000 g/ha (Galium aparine; [3]): 0%; pest or weed control at 2000 g/ha (Galium aparine; [4]): 60%; pest or weed control at 4000 g/ha (Galium aparine; [5]): 80%; pest or weed control at 8000 g/ha (Galium aparine; [6]): 75%; percentage damage (Lamium spp.; preemergence, 8.0 kg/ha): 75 percentage damage; pest or weed control at 2000 g/ha (Poa annua; [1]): 30%; pest or weed control at 4000 g/ha (Poa annua; post-emergence, postemergence): 30%; pest or weed control at 8000 g/ha (Poa annua; post-emergence, postemergence): 30%; pest or weed control at 2000 g/ha (Poa annua; [4]): 50%; pest or weed control at 4000 g/ha (Poa annua; pre-emergence, preemergence): 58%; pest or weed control at 8000 g/ha (Poa annua; pre-emergence, preemergence): 65%"
C=CCN(CC=C)C(=O)CCl [drawing 428],–,–,–,–,–,–,–,–,–,10 percentage damage,10 percentage damage,20 percentage damage,0 percentage damage,15 percentage damage,25 percentage damage,0 percentage damage,10 percentage damage,20 percentage damage,25 percentage damage,60 percentage damage,"pest or weed control at 2000 g/ha (Galium aparine; post-emergence): 5%; pest or weed control at 4000 g/ha (Galium aparine; post-emergence): 5%; pest or weed control at 8000 g/ha (Galium aparine; post-emergence): 5%; pest or weed control at 2000 g/ha (Galium aparine; pre-emergence): 70%; pest or weed control at 4000 g/ha (Galium aparine; pre-emergence): 80%; pest or weed control at 8000 g/ha (Galium aparine; pre-emergence): 90%; percentage damage (Lamium spp.; preemergence, 8.0 kg/ha): 85 percentage damage; pest or weed control at 2000 g/ha (Poa annua; [1]): 35%; pest or weed control at 4000 g/ha (Poa annua; post-emergence, postemergence): 35%; pest or weed control at 8000 g/ha (Poa annua; post-emergence, postemergence): 40%; pest or weed control at 2000 g/ha (Poa annua; [4]): 95%; pest or weed control at 4000 g/ha (Poa annua; pre-emergence, preemergence): 98%; pest or weed control at 8000 g/ha (Poa annua; pre-emergence, preemergence): 100%"
c1ccc(N2N=NC3C4CC(C5N=NC45)C32)cc1 (centres unmarked) [drawing 431],–,–,–,–,–,–,–,–,–,85 percentage damage,100 percentage damage,100 percentage damage,95 percentage damage,95 percentage damage,95 percentage damage,60 percentage damage,90 percentage damage,90 percentage damage,95 percentage damage,95 percentage damage,"pest or weed control at 2000 g/ha (Galium aparine; [1]): 10%; pest or weed control at 4000 g/ha (Galium aparine; [2]): 15%; pest or weed control at 8000 g/ha (Galium aparine; [3]): 20%; pest or weed control at 2000 g/ha (Galium aparine; [4]): 80%; pest or weed control at 4000 g/ha (Galium aparine; [5]): 100%; pest or weed control at 8000 g/ha (Galium aparine; [6]): 100%; percentage damage (Lamium spp.; preemergence, 8.0 kg/ha): 95 percentage damage; pest or weed control at 2000 g/ha (Poa annua; [1]): 35%; pest or weed control at 4000 g/ha (Poa annua; post-emergence, postemergence): 40%; pest or weed control at 8000 g/ha (Poa annua; post-emergence, postemergence): 50%; pest or weed control at 4000 g/ha (Poa annua; pre-emergence, preemergence): 100%; pest or weed control at 8000 g/ha (Poa annua; pre-emergence, preemergence): 100%; percentage damage (Poa annua; preemergence, 2.0 kg/ha): 100 percentage damage"
